Test results published in patent publication US12630523B2, “Isoquinoline derivatives for use as antiviral and antitumour agents” (priority 2021, dated 2026).
Like-named read-outs stand apart in the source and are kept apart here.

Key:
Assay type in all cases: cell-based
HPV16 E7 protein = target: T1, HPV16 E7 protein (Human papillomavirus type 16, UniProt P03129); conditions: CaSki cells; for % Dad: adjusted degradation, CHX steady state set to 100% degradation
T1 construct: endogenous in cells; host or cells: CaSki cells (HPV16-positive cervical carcinoma)
T1 sequence (P03129 whole entry): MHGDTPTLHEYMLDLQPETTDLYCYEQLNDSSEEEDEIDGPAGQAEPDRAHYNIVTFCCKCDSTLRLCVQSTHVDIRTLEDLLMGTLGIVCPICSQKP
Protocol: For intracellular antibody labeling, 0.5×10^6 cells are washed once with 1 ml ice-cold PBS. Cells are centrifuged at 350×g for 5 minutes at 4° C. and then fixed in 1% paraformaldehyde (1 ml/10^6 cells) for 20 minutes at 4° C. Cells are washed with 1 ml ice-cold PBS and centrifuged at 350×g for 5 minutes at 4° C. To permeabilize cells, 100% ice-cold methanol (1 ml/10^6 cells) is added to the cells and incubated for 20 minutes at 4° C. followed by centrifugation at 350×g for 5 minutes at 4° C. Cells are washed with 1 ml ice-cold PBS, centrifuged at 350×g for 5 minutes at 4° C. and resuspended in 0.1% saponin+2% FBS in PBS (ice-cold). Cells are left for 20-30 minutes at room temperature to reduce the background signal and then centrifuged at 350×g for 5 minutes at 4° C. The primary antibody (mAb_HPV16E7-1 (VS13004); concentration 1 μg/μl) is diluted in 0.1% saponin+2% FBS (dilution 0.25 μg/50 μl of incubation buffer per 1×10^6 cells (5 ng/μl)). Cells are incubated with primary antibody for 30 minutes at room temperature, washed with 0.1% saponin+2% FBS and centrifuged at 350×g for 5 minutes at 4° C. The secondary antibody (FITC conjugated goat anti-mouse IgG1-IgM, BD, cat. #555988) is diluted in 0.1% saponin+2% FBS (dilution 1:50). Cells are incubated with secondary antibody for 30 minutes at room temperature, washed once with 0.1% saponin+2% FBS, once with PBS and centrifuged at 350×g for 5 minutes at 4° C.
Cells are resuspended in 700 μl PBS prior to CF analysis with a Beckman Coulter FC 500 MPL, (excitation laser 488 nm). Data analysis is done using the Beckman Coulter software packages MXP for acquisition and CXP for data analysis which includes MFI calculation. Detection of HPV-E7 protein expression is based on morphology back-gating of FL1 histogram (logarithmic scale) with gating for dot plot FS (Forward Scatter) log/SS (Sideward Scatter) log and gating for histograms SS log.
In order to define the level of E7 protein expression and to study the extent of E7 protein steady state level reduction in E7 expressing cells in the presence of various compounds, FC analysis is implemented using the intracellular antibody labeling procedure for monoclonal antibodies to HPV E7. E7 signal intensities are analyzed from the obtained FL1 histograms at logarithmic scale. The FL1 single histogram graph represents the variation in the mean fluorescence intensity (MFI) channel for cells treated with selected compounds compared to cells not incubated with primary antibodies but incubated with secondary, which allows to test for auto-fluorescence, and non-compound treated cells as controls. Non-primary antibody-stained cells are used to set the acquisition parameters to zero. Decrease of the mean fluorescence intensity channel corresponds to a decrease in the expression of HPV16 E7 protein. Degradation of E7 in cells is calculated as percent (%) reduction in MFI(x-Me) using the following formulas: % Drel=(T−C)/T*100; i) relative degradation: % Dad=(T−C)/(T−CHX)*100; ii) adjusted degradation: • Drel=relative degradation, • Dad=adjusted degradation assuming CHX % Drel=100; • T=MFI of non-treated cells; • C=MFI of compound treated cells; • CH=MFI of cycloheximide (CHX) treated cells;
For comparison within one experiment i) the % relative degradation (Drel) is sufficient, whereas for comparison between two or more experiments ii) the adjusted degradation (Dad) is used and CHX steady state is set to a 100% degradation parameter.
1×10^6 freshly seeded CaSki cells (ATCC CRL-7915), are grown in 10 cm diameter cell culture dishes in RPMI1640, 10% FCS medium at 37° C. 5% CO2 overnight and then incubated in the presence of 10 μM Cycloheximide (CHX) 10 μM OC246 or with vehicle alone for four hours at 37° C. 5% CO2. Following this E7 protein is assessed by cytofluorimetric analysis using intracellular HPV16 E7 antibody labeling. […]

[1] = tested on: CaSki (ATCC CRM-CRL-1550); experiment: Monolayer assay using Sulphorhodamine B (SRB) staining, CaSki; conditions: Homo sapiens, Ca-Ski
Protocol: Various cell culture cells grown as monolayers are harvested from exponential growing cultures after treatment with various OC compounds at different concentrations. For this depending on the cell line, 10.000 to 30.000 cells were plated in 96-well flat-bottom microtiter plates. After a 24 h recovery period to allow cells to resume exponential growth, supernatants are discarded and 100 μl of culture medium (eight control wells/plate) or culture medium with the test compound are added by a liquid handling robotic system (Microlab® Starlet, Hamilton) and treatment continued for 72 hrs. Compounds are applied at 9 concentrations and eight wells/concentration). At least three independent experiments are performed. For SRB staining, cells are fixed with SRB01 (Tab. 5) for 1 h at 4° C. (final concentration of TCA=10%) washed with a plate washer (Hydroflex, Tecan©) for five times with H2O; and stained with 100 μl of SRB02 at room temperature for 10 min following 4 washes in SRB03 and finally 100 μl of developer solution SRB04 for 5 minutes with shaking. Optical density is assessed using a plate-reader (Sunrise, Tecan©) at 540 nm.
Concentrations required for half maximal response of the compound for cell growth inhibition (EC50) is calculated by non-linear regression (log[conc. of inhibitor] versus response (% T/C)) using the analysis software GraphPad Prism®, Prism 5 for windows, version 5.01 (GraphPad Software Inc., CA).

[2] = tested on: SARS-CoV-2 isolate BetaCov/Belgium/GHB-03021/2020; experiment: microbe, parasite or virus in culture; conditions: 1.25 μM (non-toxic compound concentration), n4; for inhibition at 1.25 µM: Severe acute respiratory syndrome coronavirus 2
[3] = SRB assay from Caski cells, “0” = no activity detected with the concentrations tested, read-out: EC50 mean

SMILES	% Dad (HPV16 E7 protein)	inhibition at 1.25 µM [2]	other results
Cc1ccc(CN2C(=O)c3ccccc3C(C(=O)NCCN(C)C)C2c2ccc(Cl)cc2)cc1 (centres unmarked) [OC250]	19%	–	–
CN(C)CCNC(=O)C1c2ccccc2C(=O)N(Cc2ccc(N(C)C)cc2)C1c1ccc(C(F)(F)F)cc1 (centres unmarked) [OC382]	–	41.2%	EC50 [1, 3]: 2300 nM
CS(=O)(=O)O.Cc1c(O)cccc1C(=O)N[C@@H](CSc1ccccc1)[C@H](O)CN1C[C@H]2CCCC[C@H]2C[C@H]1C(=O)NC(C)(C)C [Neifinavir-Mesylat, reference compound]	–	–	% Inhibition [2]: 9.49%
COCCNC(=O)C1c2ccccc2C(=O)N(Cc2ccc(C)cc2)C1c1ccc(Cl)cc1 (centres unmarked) [OC252]	0%	–	–
Cc1ccc(CN2C(=O)c3ccccc3C(C(=O)N3CCN(C)CC3)C2c2ccc(Cl)cc2)cc1 (centres unmarked) [OC256]	8%	–	–
Cc1ccc(CN2C(=O)c3ccccc3C(C(=O)N3CCN(C=O)CC3)C2c2ccc(Cl)cc2)cc1 (centres unmarked) [OC258]	0%	–	–
Cc1ccc(CN2C(=O)c3ccccc3C(C(=O)NCCN3CCCC3)C2c2ccc(Cl)cc2)cc1 (centres unmarked) [OC251]	1%	–	–
Cc1ccc(CN2C(=O)c3ccccc3C(C(=O)NCc3cccnc3)C2c2ccc(Cl)cc2)cc1 (centres unmarked) [OC255]	2%	–	–
COc1cc2c(cc1OC)[C@@H](C(=O)Nc1cccc(N3CCN(C)CC3)c1)[C@H](c1ccc(C(F)(F)F)cc1)N(Cc1ccc(C)cc1)C2=O (relative stereo) [OC971]	26%	–	–
CC(=O)Nc1ccc2c(c1)C(=O)N(Cc1ccc(C)cc1)[C@@H](c1ccc(C(F)(F)F)cc1)[C@@H]2C(=O)Nc1cccc(N2CCN(C)CC2)c1 (relative stereo) [OC970]	20%	3.03%	EC50 ([1]; read-out: EC50 mean [nM]): 5550 nM
Cc1ccc(C2C(C(=O)NCCN(C)C)c3ccccc3C(=O)N2Cc2ccc(C(F)(F)F)cc2)cc1 (centres unmarked) [OC379]	26%	33.4%	EC50 [1, 3]: 11900 nM
COc1ccc2cc1Oc1ccc(cc1)C[C@H]1c3c(cc4c(c3Oc3cc5c(cc3OC)CCN(C)[C@@H]5C2)OCO4)CCN1C [Cepharantin, reference compound]	–	–	% Inhibition [2]: 2.32%
COc1ccc2c(c1)C(=O)N(Cc1ccc(C)cc1)[C@@H](c1ccc(C(F)(F)F)cc1)[C@@H]2C(=O)Nc1cccc(N2CCN(C)CC2)c1 (relative stereo) [OC969]	66%	–	–
CN(C)CCNC(=O)C1c2ccccc2C(=O)N(Cc2ccc(N)cc2)C1c1ccc(C(F)(F)F)cc1 (centres unmarked) [OC380]	3%	72.6%	EC50 [1, 3]: 11400 nM
Cc1ccc(CN2C(=O)c3ccccc3C(C(=O)NCCN(C)C)C2c2ccc(C(F)(F)F)nc2)cc1 (centres unmarked) [OC381]	41%	43.7%	EC50 ([1]; read-out: EC50 mean [nM]): 17500 nM
CO[C@H]1C[C@@H]2CC[C@@H](C)[C@@](O)(O2)C(=O)C(=O)N2CCCC[C@H]2C(=O)O[C@H]([C@H](C)C[C@@H]2CC[C@@H](O)[C@H](OC)C2)CC(=O)[C@H](C)/C=C(\C)[C@@H](O)[C@@H](OC)C(=O)[C@H](C)C[C@H](C)/C=C/C=C/C=C/1C [Rapamycin, reference compound]	–	21.1%	–
Cc1ccc(CN2C(=O)c3ccccc3C(C(=O)NCCN(C)C)C2c2ccc(C(F)(F)F)cc2)cc1 (centres unmarked) [OC377]	35%	81.6%	EC50 [1, 3]: 6750 nM
Cc1ccc(CN2C(=O)c3ccccc3C(C(=O)NCc3ccc(N(C)C)cc3)C2c2ccc(Cl)cc2)cc1 (centres unmarked) [OC254]	16%	–	–
C[C@@H]1C[C@@H]([C@H](O)CC2CC(=O)NC(=O)C2)C(=O)[C@@H](C)C1 [CHX, Cycloheximide, reference compound]	–	–	% Drel (relative degradation) (HPV16 E7 protein; 10 μM, four hours): 78.78%; % Dab (adjusted degradation) (HPV16 E7 protein; 10 μM, four hours, CHX set to 100): 100%; MFI (mean fluorescence intensity) of E7 signal (HPV16 E7 protein; 10 μM, four hours, vehicle T 8.06): 1.71
O=C(NOCC1CC1)c1ccc(F)c(F)c1Nc1ccc(I)cc1Cl [CI-1040, 2-(2-Chloro-4-iodophenylamino)-N-(cyclopropylmethoxy)-3,4-difluorobenzamide, reference compound]	–	146%	–
Cc1ccc(CN2C(=O)c3ccccc3C(C(=O)Nc3cccc(N4CCN(C)CC4)c3)C2c2ccc(Br)cc2)cc1 (centres unmarked) [OC247]	6%	30.6%	EC50 ([1]; read-out: EC50 mean [nM]): 6730 nM
c1c2c(cc3c1OCO3)-c1cc3ccc4c(c3c[n+]1CC2)OCO4 [Coptisin, reference compound]	–	–	% Inhibition [2]: 98.97%
Cc1ccc(CN2C(=O)c3ccccc3C(C(=O)Nc3cccc(N4CCN(C)CC4)c3)C2c2ccc(Cl)c(Cl)c2)cc1 (centres unmarked) [OC245]	0%	–	–
CN(C)CCNC(=O)C1c2ccccc2C(=O)N(Cc2ccc(C(F)(F)F)cc2)C1c1ccc(C(F)(F)F)cc1 (centres unmarked) [OC378]	48%	43.4%	EC50 [1, 3]: 5690 nM
